Experimental data reported in paper PMC5489047, “Molecular glues for manipulating enzymes: trypsin inhibition by benzamidine-conjugated molecular glues” (Chemical Science, 2015).

Columns and labels:
[1] = target: T1, trypsin (Sus scrofa, UniProt P00761); assay: Circular dichroism (CD) spectral titration of trypsin, Hill equation fit; format: binding; settings: trypsin 5 μM, CD at 237 nm, 25 °C, Tris–HCl buffer (50 mM Tris–HCl, 10 mM CaCl2, pH 8.0), read-out: association constant (K assoc) with trypsin (converted)
T1 construct: purchased Wako; host or cells: porcine pancreas (natural source)
T1 sequence (P00761 9-231): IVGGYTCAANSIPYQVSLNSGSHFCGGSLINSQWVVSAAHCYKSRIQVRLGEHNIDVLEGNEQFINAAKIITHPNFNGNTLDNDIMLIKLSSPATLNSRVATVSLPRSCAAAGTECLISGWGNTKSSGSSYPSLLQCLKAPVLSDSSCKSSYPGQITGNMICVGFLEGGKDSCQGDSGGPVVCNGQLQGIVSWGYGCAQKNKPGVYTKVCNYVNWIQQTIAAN
Description: We first investigated the effect of conjugation of molecular glues to BA on the binding affinity for trypsin. Trypsin is known to alter its conformation upon interaction with metal ions,[24] polymers[25] and proteins,[26] resulting in circular dichroism (CD) spectral changes. Upon mixing with Glue10–BA, trypsin also changed its CD spectrum. […] According to the reported method,[27],[28] we estimated the association constant (K assoc) of Glue10–BA with trypsin to be 5.5 × 10^5 M^–1 by fitting the fractions of bound trypsin (Fig. 3, red) to the Hill equation.[27],[28] […]
Fig. 3 Circular dichroism (CD) spectral titration profiles of trypsin (5 μM) at 237 nm with molecular glues Glue29–BA (brown; 0–2.5 μM), Glue10–BA (red; 0–7 μM), Glue10–Ph (green; 0–12 μM) and ^mGlue27–BA (purple; 0–50 μM), together with reference TEG–BA (blue; 0–200 μM), at 25 °C in Tris–HCl buffer (50 mM Tris–HCl, 10 mM CaCl2, pH 8.0). The fractions of bound trypsin were calculated from (I – I 0)/(I sat – I 0), where I 0, I and I sat represent the CD intensities before titration, observed with titrants and at the saturation point, respectively. […]
The association constants (K assoc) were calculated based on the Hill equation by plotting the fractions of bound trypsin versus the concentrations of a titrant. […]

[2] = target: T1, trypsin; assay: Trypsin activity assay (TAME hydrolysis, absorption at 247 nm); format: biochemical; settings: trypsin 20 nM, TAME 1 mM
Description: Trypsin hydrolyses peptide linkages at the carboxyl side of lysine and arginine residues.[29] As already described in Fig. 2a, this protease activity is inhibited by BA.[10] Considering the exceptionally high affinity of Glue29–BA for trypsin, we expected that this BA-appended molecular glue might be the best inhibitor among those listed in Fig. 1. However, as observed by dynamic light scattering (DLS; Fig. S12 ^†), trypsin/Glue29–BA, in contrast with other complexes such as trypsin/Glue10–BA and trypsin/Glue10–Ph, tends to form large aggregates (>200 nm), most likely due to the formation of physical crosslinks between its excessively long glue moiety and trypsin. […] We presume that the poor conformational flexibility of the in-chain Gu^+ units in the glue moiety hinders the ability of the conjugated BA terminus to properly block the substrate-binding site of trypsin. […]
To a Tris–HCl buffer (50 mM Tris–HCl, 10 mM CaCl2, pH 8.0) solution of trypsin (20 nM) was added a Tris–HCl buffer solution of TEG–BA, and the mixture was incubated at 25 °C for 1 min. […] The trypsin activity was determined using pseudo-first order reaction kinetics and normalized to that of untreated trypsin. The trypsin activities in the presence of Gluen–BA, ^mGluen–BA and Gluen–Ph were likewise evaluated.

Kd [1]: 62.5 µM
inhibition of TAME hydrolysis by trypsin at 10 μM ([2]; 10 μM compound): did not exhibit detectable inhibition
IC50 ([2]; 25 °C, Tris–HCl buffer pH 8.0, read-out: half-maximal inhibitory concentration (IC50)): 79 µM
SMILES: [N-]=[N+]=NCCOCCOCCOCCNC(=O)CCCC(=O)Nc1ccc(C(=N)N)cc1 [TEG–BA]
